{"source": "patent US20130303575A1", "about": "“ADMINISTRATION OF AN INHIBITOR OF HDAC” (priority 2007, published 2013)", "experiment": "Plasma pharmacokinetics of oral SNDX-275 in adults with advanced acute leukemias (Example 3)", "type": "in vivo, human", "settings": "for AUC / Cmax / half-life / Tmax: human, plasma, oral; for AUC: read-out: AUC (mean and SD); for Cmax: read-out: Cmax (mean and SD)", "description": "Separated plasma was immediately frozen on dry ice and then stored at -70° C. until analysis. […] The pharmacokinetic parameters of interest included peak plasma concentration (Cmax), time to peak concentration (Tmax), area under the plasma concentration versus time curve extrapolated to infinity (AUC), apparent oral clearance (CL/F), and the terminal half-life (T1/2, z). […] The influence of the dose level on CL/F was evaluated using the Kruskal-Wallis' one-way analysis of ranks test, followed by the Dunn's multiple comparison test for identifying statistically significant group differences. These calculations were preformed with the software package NCSS version 2001 (Number Cruncher Statistical Systems, […], Utah).", "key": {"[1]": {"settings": "4 mg/m2, 4 mg/m^2, first dose, with food, 7 patients"}}, "note": "Like-named read-outs stand apart in the source and are kept apart here.", "data": [{"smiles": "Nc1ccccc1NC(=O)c1ccc(CNC(=O)OCc2cccnc2)cc1", "note": "[SNDX-275, N-(2-aminophenyl) 4-[N-(pyrid-3-yl)methyloxycarbonylaminomethyl]benzamide]", "values": [{"measurement": "AUC with increasing doses", "setting": "4 to 10 mg/m^2", "result": "reached a plateau"}, {"measurement": "T1/2 (mean and SD), terminal half-life", "setting": "All doses, n = 27", "result": 36, "unit": "h"}, {"measurement": "AUC", "setting": "[1]", "result": "208 ± 86.1", "unit": "ng·h/mL"}, {"measurement": "Cmax", "setting": "[1]", "result": "4.74 ± 3.41", "unit": "ng/mL"}, {"measurement": "half-life", "setting": "4 mg/m2, 4 mg/m^2, first dose, with food, 7 patients, read-out: T1/2 (mean and SD) (converted)", "result": "36.6 ± 18.6", "unit": "h"}, {"measurement": "Tmax", "setting": "4 mg/m2, 4 mg/m^2, first dose, with food, 7 patients, read-out: Tmax (median)", "result": 12, "unit": "h"}, {"measurement": "Cmax", "setting": "6 mg/m2, 6 mg/m^2, first dose, with food, 7 patients", "result": "4.87 ± 1.76", "unit": "ng/mL"}, {"measurement": "Tmax", "setting": "6 mg/m2, 6 mg/m^2, first dose, with food, 7 patients, read-out: Tmax (median)", "result": 12, "unit": "h"}, {"measurement": "AUC", "setting": "6 mg/m2, 6 mg/m^2, first dose, with food, n = 5", "result": 351, "unit": "ng·h/mL"}, {"measurement": "half-life", "setting": "6 mg/m2, 6 mg/m^2, first dose, with food, n = 5, read-out: T1/2 (mean and SD) (converted)", "result": "43.8 ± 16.4", "unit": "h"}, {"measurement": "Cmax", "setting": "8 mg/m2, 8 mg/m^2, first dose, with food, 15 patients", "result": "53.1 ± 92.4", "unit": "ng/mL"}, {"measurement": "Tmax", "setting": "8 mg/m2, 8 mg/m^2, first dose, with food, 15 patients, read-out: Tmax (median)", "result": 1, "unit": "h"}, {"measurement": "AUC", "setting": "8 mg/m2, 8 mg/m^2, first dose, with food, n = 10", "result": 328, "unit": "ng·h/mL"}, {"measurement": "half-life", "setting": "8 mg/m2, 8 mg/m^2, first dose, with food, n = 10, read-out: T1/2 (mean and SD) (converted)", "result": "33.4 ± 12.7", "unit": "h"}, {"measurement": "Cmax", "setting": "10 mg/m2, 10 mg/m^2, first dose, with food, 6 patients", "result": "53.2 ± 58", "unit": "ng/mL"}, {"measurement": "Tmax", "setting": "10 mg/m2, 10 mg/m^2, first dose, with food, 6 patients, read-out: Tmax (median)", "result": 1, "unit": "h"}, {"measurement": "AUC", "setting": "10 mg/m2, 10 mg/m^2, first dose, with food, n = 5", "result": 312, "unit": "ng·h/mL"}, {"measurement": "half-life", "setting": "10 mg/m2, 10 mg/m^2, first dose, with food, n = 5, read-out: T1/2 (mean and SD) (converted)", "result": "30.4 ± 13.9", "unit": "h"}, {"measurement": "Tmax", "setting": "All doses, 35 patients, read-out: Tmax (median)", "result": "~2", "unit": "h"}, {"measurement": "half-life", "setting": "All doses, n = 27, read-out: T1/2 (mean and SD), terminal half-life (converted)", "result": "35.6 ± 15", "unit": "h"}, {"measurement": "Tmax", "setting": "all dose levels, read-out: range of Tmax values", "result": "0.5 to 36", "unit": "h"}]}]}
